Reference: PubChem BioAssay (NCI)
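The compound was tested at five concentrations on cells cultured in 96-well plates, with a 48-hour exposure period. At the TGI there is no net growth.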

Columns and labels:
Assay in all cases: growth of human tumour cells (NCI), 48 h
786-0 renal = system: 786-0 renal
A498 renal = system: A498 renal
A549 NSCLC = system: A549 NSCLC
ACHN renal = system: ACHN renal
CAKI-1 renal = system: CAKI-1 renal
CCRF-CEM leukemia = system: CCRF-CEM leukemia
COLO 205 colon = system: COLO 205 colon
DLD-1 colon = system: DLD-1 colon
DMS 114 small cell lung = system: DMS 114 small cell lung
DMS 273 small cell lung = system: DMS 273 small cell lung
EKVX NSCLC = system: EKVX NSCLC
HCC-2998 colon = system: HCC-2998 colon
HCT-116 colon = system: HCT-116 colon
HCT-15 colon = system: HCT-15 colon
HL-60(TB) leukemia = system: HL-60(TB) leukemia
HOP-18 NSCLC = system: HOP-18 NSCLC
HOP-62 NSCLC = system: HOP-62 NSCLC
HOP-92 NSCLC = system: HOP-92 NSCLC
HT29 colon = system: HT29 colon
IGROV1 ovarian = system: IGROV1 ovarian
K-562 leukemia = system: K-562 leukemia
KM12 colon = system: KM12 colon
KM20L2 colon = system: KM20L2 colon
LOX IMVI melanoma = system: LOX IMVI melanoma
LXFL 529 NSCLC = system: LXFL 529 NSCLC
M14 melanoma = system: M14 melanoma
M19-MEL melanoma = system: M19-MEL melanoma
MALME-3M melanoma = system: MALME-3M melanoma
MOLT-4 leukemia = system: MOLT-4 leukemia
NCI-H226 lung = system: NCI-H226 lung
NCI-H23 lung = system: NCI-H23 lung
NCI-H460 lung = system: NCI-H460 lung
NCI-H522 lung = system: NCI-H522 lung
OVCAR-3 ovarian = system: OVCAR-3 ovarian
OVCAR-4 ovarian = system: OVCAR-4 ovarian
OVCAR-5 ovarian = system: OVCAR-5 ovarian
OVCAR-8 ovarian = system: OVCAR-8 ovarian
RPMI-8226 leukemia = system: RPMI-8226 leukemia
RXF 393 renal = system: RXF 393 renal
SF-268 CNS = system: SF-268 CNS
SF-295 CNS = system: SF-295 CNS
SF-539 CNS = system: SF-539 CNS
SK-MEL-2 melanoma = system: SK-MEL-2 melanoma
SK-MEL-28 melanoma = system: SK-MEL-28 melanoma
SK-MEL-5 melanoma = system: SK-MEL-5 melanoma
SK-OV-3 ovarian = system: SK-OV-3 ovarian
SN12C renal = system: SN12C renal
SNB-19 CNS = system: SNB-19 CNS
SNB-75 CNS = system: SNB-75 CNS
SNB-78 CNS = system: SNB-78 CNS
SW-620 colon = system: SW-620 colon
TK-10 renal = system: TK-10 renal
U251 CNS = system: U251 CNS
UACC-257 melanoma = system: UACC-257 melanoma
UACC-62 melanoma = system: UACC-62 melanoma
UO-31 renal = system: UO-31 renal
XF 498 CNS = system: XF 498 CNS
SR leukemia = system: SR leukemia

Measured: TGI

CC1=[N+]([O-])c2ccccc2C(=O)C1=O
74.2 µM: CCRF-CEM leukemia
71.4 µM: NCI-H522 lung
not listed: SR leukemia
> 100 µM: all other assays above

Cn1cc(C2(C)CC(C)(C)c3c2n(C)c2ccccc32)c2ccccc21 (stereo not drawn)
not listed: ACHN renal | HCT-116 colon | HL-60(TB) leukemia | HOP-18 NSCLC | OVCAR-4 ovarian | OVCAR-5 ovarian | SR leukemia
> 100 µM: all other assays above

COC(=O)CC1N=C(NC#N)N(CCc2c[nH]c3ccccc23)C1=O (stereo not drawn)
not listed: A498 renal | CAKI-1 renal | HOP-18 NSCLC | HOP-92 NSCLC | MALME-3M melanoma | NCI-H522 lung | SK-MEL-2 melanoma
> 100 µM: all other assays above

CC(=O)O[C@H]1C(=O)[C@@]2(C)C(C(OC(=O)c3ccccc3)[C@]3(O)CC(OC(=O)C(O)C(NC(=O)c4ccc(C(F)(F)F)cc4)c4ccccc4)C(C)=C1C3(C)C)[C@]1(OC(C)=O)CO[C@@H]1C[C@@H]2O (stereo partly drawn)
28.9 µM: DLD-1 colon
2.43 µM: U251 CNS
0.506 µM: HOP-62 NSCLC
0.946 µM: SK-OV-3 ovarian
0.269 µM: UACC-62 melanoma
0.763 µM: SW-620 colon
3.95 µM: OVCAR-5 ovarian
17.8 µM: SK-MEL-28 melanoma
14.8 µM: K-562 leukemia
5.88 µM: RPMI-8226 leukemia
0.2 µM: NCI-H522 lung
6.43 µM: LOX IMVI melanoma
0.485 µM: M14 melanoma
0.174 µM: KM20L2 colon
7.39 µM: MOLT-4 leukemia
0.65 µM: SF-539 CNS
1.79 µM: SF-295 CNS
0.271 µM: M19-MEL melanoma
0.153 µM: COLO 205 colon
0.202 µM: KM12 colon
0.194 µM: OVCAR-3 ovarian
0.196 µM: HCT-116 colon
10.1 µM: SNB-78 CNS
13.5 µM: HCT-15 colon
0.387 µM: HCC-2998 colon
2.44 µM: OVCAR-8 ovarian
0.237 µM: HT29 colon
0.53 µM: DMS 273 small cell lung
0.284 µM: SK-MEL-2 melanoma
3.8 µM: SK-MEL-5 melanoma
0.00891 µM: SNB-75 CNS
11.6 µM: SN12C renal
5.3 µM: SF-268 CNS
5.58 µM: 786-0 renal
1.06 µM: NCI-H23 lung
0.122 µM: DMS 114 small cell lung
15.5 µM: CCRF-CEM leukemia
13.7 µM: MALME-3M melanoma
4.96 µM: NCI-H226 lung | SR leukemia
31 µM: HOP-18 NSCLC
0.783 µM: NCI-H460 lung
3.09 µM: XF 498 CNS
not listed: EKVX NSCLC | LXFL 529 NSCLC | RXF 393 renal | UO-31 renal
> 37.5 µM: all other assays above
